Reference: article PMC5224880, “Discovery and Molecular Basis of a Diverse Set of Polycomb Repressive Complex 2 Inhibitors Recognition by EED” (PLoS ONE, 2017)

Columns and labels:
[1] = molecular target: MLL (MLL/WDR5/RBBP5/ASH2L) (Homo sapiens, UniProt Q03164); assay: HMT panel selectivity: MLL; format: biochemical
Method: (§1) Note: for EZH2, EZH2/EED/SUZ12/RBAP48/AEBP2 was used in the assay; for EZH1, EZH1/EED/SUZ12/RBAP48/AEBP2 was used in the assay; for MLL, MLL/WDR5/RBBP5/ASH2L/ was use in the assay. a, H3K27me0 peptide was used as substrate for both EZH2 and EZH1 activity; b, H3K27me1 peptide was used as substrate for both EZH2 and EZH1 activity. All HMT reactions were performed as described previously. ref: Proc Natl Acad Sci U S A. 2012 Dec 26;109(52):21360-5.

Dot1L = Dot1L (Homo sapiens, UniProt Q8TEK3); assay: HMT panel selectivity: Dot1L; format: biochemical
Method: as §1

Suv39H2 = Suv39H2 (Homo sapiens, UniProt Q9H5I1); assay: HMT panel selectivity: Suv39H2; format: biochemical
Method: as §1

[2] = molecular target: EZH2 (EZH2/EED/SUZ12/RBAP48/AEBP2) (Homo sapiens, UniProt O75530+Q15910); assay: HMT panel selectivity: EZH2; format: biochemical
From the text: This assay employs liquid chromatography mass spectrometry technology using peptide or nucleosome as substrate and then detects the formation of the co-product SAH [11, 25].
as §1, with “activity.” for “activity. All HMT reactions were performed as described previously. ref: Proc Natl Acad Sci U S A. 2012 Dec 26;109(52):21360-5.”

His-EED (residues 1–441) = molecular target: T1, His-EED (residues 1–441) (Homo sapiens, UniProt O75530); assay: biochemical; details: 30 nM His-EED, 15 nM biotin-H3K27me3 (19–33) peptide; read-out: IC50, EED-H3K27me3 AlphaScreen competition binding assay
T1 construct: 30 nM His-EED (residues 1–441) protein
Method: The data were then fit to a dose response equation using the program Helios (Novartis) to determine the IC50 values.
Each compound was counterscreened to determine if it interfered with the AlphaScreen beads. Compounds were diluted as described in the preceding section, and the assay was performed by adding 12 μL of 10 nM Biotin-miniPEG-His6 peptide in the above buffer and incubated for 20 min at room temperature prior to addition of the acceptor and donor beads. The plates were then incubated for 1 h at room temperature in the dark before being read on the EnVision system (Perkin Elmer).
In addition to the enzymatic assay, we also developed a binding assay to measure the interaction between His-tagged recombinant EED protein and a biotinylated H3K27me3 peptide using the Amplified Luminescence Proximity Homogenous Assay Screen (AlphaScreen) [33, 34]. Binding of Biotin-H3K27me3 peptide to His-EED protein brings the streptavidin-coated donor beads and anti-His antibody coated acceptor beads into close proximity and thus a luminescent signal is produced. Disruption of EED-H3K27me3 interaction by H3K27me3 pocket binders will result in the signal reduction.

recombinant EED = recombinant EED (Homo sapiens, UniProt O75530); assay: ITC binding analysis; details: 25°C
Method: ITC experiments were performed on an Auto ITC200 (Microcal) at 25°C. The ITC sample cell was filled with 10 μM PRC2 in titration buffer containing 25 mM HEPES pH8.0, 150 mM NaCl, and 1% DMSO. 40 μL of 100 μM compounds in the same titration buffer was loaded in the ITC syringe. 19 injections, each of 2 μL, was injected into the ITC cell at 150 s intervals. Binding constant (K) and binding enthalpy (ΔH) determinations were obtained from the fit to the experimental data using a one-site model.
Both isothermal calorimetry (ITC) and surface plasmon resonance (SPR) assay were established for this purpose.

Dot1L, sequence (Q8TEK3 whole entry, species assumed): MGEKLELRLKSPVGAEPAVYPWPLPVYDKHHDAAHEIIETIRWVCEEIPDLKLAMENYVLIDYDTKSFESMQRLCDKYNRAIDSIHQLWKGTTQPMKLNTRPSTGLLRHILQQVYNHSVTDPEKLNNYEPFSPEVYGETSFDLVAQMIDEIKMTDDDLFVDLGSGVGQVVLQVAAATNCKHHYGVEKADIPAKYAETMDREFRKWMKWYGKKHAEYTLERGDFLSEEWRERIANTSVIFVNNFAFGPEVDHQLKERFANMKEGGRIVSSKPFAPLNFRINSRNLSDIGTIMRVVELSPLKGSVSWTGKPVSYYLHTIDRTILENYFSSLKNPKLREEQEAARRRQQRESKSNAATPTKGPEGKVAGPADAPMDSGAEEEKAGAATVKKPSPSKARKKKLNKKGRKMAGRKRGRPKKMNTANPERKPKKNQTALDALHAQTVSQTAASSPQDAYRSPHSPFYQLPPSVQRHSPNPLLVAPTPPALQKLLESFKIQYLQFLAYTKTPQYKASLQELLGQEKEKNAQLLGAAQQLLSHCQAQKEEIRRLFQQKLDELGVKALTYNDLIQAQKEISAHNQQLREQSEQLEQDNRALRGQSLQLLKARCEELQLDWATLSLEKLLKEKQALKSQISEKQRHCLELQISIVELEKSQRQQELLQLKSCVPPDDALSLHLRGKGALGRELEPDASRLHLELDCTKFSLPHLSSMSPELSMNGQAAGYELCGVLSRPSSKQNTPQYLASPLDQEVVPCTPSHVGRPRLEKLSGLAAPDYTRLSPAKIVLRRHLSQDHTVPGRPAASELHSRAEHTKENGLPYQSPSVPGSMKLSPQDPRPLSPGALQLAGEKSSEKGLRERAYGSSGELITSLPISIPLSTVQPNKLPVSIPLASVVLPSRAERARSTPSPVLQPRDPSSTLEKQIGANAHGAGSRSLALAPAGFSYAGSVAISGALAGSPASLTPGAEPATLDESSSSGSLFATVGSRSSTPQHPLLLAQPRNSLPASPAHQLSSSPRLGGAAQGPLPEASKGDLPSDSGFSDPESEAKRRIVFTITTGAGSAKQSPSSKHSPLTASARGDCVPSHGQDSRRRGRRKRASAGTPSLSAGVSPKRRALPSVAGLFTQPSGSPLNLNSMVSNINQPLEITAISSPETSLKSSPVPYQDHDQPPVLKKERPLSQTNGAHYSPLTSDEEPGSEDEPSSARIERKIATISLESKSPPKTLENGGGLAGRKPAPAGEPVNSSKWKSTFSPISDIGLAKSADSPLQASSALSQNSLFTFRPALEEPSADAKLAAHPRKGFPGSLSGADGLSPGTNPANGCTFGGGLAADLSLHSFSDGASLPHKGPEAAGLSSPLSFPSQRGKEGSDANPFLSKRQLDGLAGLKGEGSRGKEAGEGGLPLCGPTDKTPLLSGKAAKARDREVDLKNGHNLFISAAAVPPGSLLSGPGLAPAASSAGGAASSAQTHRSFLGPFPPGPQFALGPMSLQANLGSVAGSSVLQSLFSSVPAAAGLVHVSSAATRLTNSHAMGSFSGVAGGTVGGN
Suv39H2, sequence (Q9H5I1 whole entry, species assumed): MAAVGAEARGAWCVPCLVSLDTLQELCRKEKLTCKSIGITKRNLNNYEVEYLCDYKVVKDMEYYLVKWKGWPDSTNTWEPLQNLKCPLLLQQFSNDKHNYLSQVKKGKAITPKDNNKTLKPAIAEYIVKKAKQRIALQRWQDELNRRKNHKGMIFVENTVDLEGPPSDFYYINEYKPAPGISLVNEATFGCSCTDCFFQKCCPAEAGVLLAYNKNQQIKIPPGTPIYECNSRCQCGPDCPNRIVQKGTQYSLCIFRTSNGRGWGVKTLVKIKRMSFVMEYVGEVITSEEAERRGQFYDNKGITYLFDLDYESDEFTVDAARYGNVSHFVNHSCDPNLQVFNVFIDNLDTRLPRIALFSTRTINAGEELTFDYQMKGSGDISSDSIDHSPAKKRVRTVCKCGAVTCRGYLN
EZH2 (EZH2/EED/SUZ12/RBAP48/AEBP2), sequence (Q15910 whole entry): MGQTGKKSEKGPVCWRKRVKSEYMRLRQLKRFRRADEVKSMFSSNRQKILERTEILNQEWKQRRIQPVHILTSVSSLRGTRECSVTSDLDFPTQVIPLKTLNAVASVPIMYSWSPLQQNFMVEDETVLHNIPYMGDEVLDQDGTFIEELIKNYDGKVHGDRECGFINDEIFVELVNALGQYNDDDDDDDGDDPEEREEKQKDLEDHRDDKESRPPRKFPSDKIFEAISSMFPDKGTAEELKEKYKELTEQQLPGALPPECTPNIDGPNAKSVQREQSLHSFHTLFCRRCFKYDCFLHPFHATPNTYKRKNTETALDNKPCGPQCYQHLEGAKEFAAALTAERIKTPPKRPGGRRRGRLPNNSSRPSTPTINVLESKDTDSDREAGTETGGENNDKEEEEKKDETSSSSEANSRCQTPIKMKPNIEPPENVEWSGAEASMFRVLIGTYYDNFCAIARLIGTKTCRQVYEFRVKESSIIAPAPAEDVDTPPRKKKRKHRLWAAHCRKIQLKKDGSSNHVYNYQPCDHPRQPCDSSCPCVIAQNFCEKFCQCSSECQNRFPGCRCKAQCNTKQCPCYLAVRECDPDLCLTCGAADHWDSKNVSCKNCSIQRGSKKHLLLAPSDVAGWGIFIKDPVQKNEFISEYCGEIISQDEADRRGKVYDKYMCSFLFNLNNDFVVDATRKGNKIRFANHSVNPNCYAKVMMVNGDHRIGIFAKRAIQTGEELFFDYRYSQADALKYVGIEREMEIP
EZH2 (EZH2/EED/SUZ12/RBAP48/AEBP2), sequence (O75530 whole entry): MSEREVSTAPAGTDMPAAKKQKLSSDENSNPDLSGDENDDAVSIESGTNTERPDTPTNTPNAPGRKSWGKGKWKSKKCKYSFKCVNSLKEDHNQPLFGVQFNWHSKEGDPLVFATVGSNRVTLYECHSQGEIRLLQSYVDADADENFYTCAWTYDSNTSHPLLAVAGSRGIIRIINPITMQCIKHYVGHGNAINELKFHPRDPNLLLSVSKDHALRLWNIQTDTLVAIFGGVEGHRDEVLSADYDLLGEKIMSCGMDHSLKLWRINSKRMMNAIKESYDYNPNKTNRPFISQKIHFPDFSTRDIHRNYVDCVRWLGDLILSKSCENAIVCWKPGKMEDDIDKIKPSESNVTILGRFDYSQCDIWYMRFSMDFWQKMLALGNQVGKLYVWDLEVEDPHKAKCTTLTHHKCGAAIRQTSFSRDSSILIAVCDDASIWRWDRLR
EZH2 (EZH2/EED/SUZ12/RBAP48/AEBP2), sequence (Q15022 whole entry partner): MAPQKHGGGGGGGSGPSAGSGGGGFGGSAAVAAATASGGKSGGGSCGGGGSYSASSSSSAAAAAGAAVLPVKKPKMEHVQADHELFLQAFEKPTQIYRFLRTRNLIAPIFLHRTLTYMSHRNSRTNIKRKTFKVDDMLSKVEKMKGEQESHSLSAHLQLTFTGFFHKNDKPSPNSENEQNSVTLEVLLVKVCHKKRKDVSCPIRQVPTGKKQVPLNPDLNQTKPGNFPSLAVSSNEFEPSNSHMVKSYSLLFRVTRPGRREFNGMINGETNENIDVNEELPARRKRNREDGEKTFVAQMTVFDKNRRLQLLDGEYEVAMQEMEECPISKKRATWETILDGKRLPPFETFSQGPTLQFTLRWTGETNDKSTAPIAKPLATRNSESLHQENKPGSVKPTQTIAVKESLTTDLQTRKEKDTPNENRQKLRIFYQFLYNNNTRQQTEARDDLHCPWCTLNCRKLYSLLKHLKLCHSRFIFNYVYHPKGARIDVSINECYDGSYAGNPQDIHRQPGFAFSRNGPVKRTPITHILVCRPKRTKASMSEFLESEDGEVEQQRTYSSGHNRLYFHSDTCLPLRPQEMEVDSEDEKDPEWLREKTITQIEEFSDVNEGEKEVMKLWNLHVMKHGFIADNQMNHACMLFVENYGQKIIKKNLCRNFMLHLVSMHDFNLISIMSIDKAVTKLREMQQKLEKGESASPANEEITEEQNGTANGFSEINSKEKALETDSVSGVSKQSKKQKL
EZH2 (EZH2/EED/SUZ12/RBAP48/AEBP2), sequence (Q09028 whole entry partner): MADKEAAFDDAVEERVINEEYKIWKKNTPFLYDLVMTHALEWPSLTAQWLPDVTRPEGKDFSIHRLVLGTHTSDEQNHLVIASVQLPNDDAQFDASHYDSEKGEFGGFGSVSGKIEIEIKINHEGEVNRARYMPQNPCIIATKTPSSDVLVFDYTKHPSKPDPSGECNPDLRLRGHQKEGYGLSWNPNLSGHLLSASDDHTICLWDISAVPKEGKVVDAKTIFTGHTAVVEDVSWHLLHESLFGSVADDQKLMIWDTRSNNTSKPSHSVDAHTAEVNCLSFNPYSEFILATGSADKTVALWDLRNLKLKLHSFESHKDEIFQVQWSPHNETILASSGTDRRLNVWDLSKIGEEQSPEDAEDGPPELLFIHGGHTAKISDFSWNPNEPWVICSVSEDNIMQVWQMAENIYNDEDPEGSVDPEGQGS
EZH2 (EZH2/EED/SUZ12/RBAP48/AEBP2), sequence (Q6ZN18 whole entry partner): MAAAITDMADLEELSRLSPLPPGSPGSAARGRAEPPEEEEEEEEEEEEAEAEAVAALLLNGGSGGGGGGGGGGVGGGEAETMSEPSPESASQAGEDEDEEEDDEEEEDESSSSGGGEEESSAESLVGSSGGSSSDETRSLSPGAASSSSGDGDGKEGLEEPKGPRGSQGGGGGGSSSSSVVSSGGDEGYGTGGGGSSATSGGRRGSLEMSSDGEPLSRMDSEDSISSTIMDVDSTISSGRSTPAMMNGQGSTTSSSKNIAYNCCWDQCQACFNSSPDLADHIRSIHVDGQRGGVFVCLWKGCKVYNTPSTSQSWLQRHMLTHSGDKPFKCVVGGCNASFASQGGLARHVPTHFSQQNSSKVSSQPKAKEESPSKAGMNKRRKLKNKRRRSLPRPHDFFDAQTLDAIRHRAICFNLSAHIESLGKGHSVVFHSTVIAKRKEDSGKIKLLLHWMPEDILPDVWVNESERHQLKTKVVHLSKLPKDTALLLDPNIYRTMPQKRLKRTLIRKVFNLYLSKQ
T1 sequence (O75530 whole entry, the tested form may be a part): as the sequence (O75530 whole entry) above

Row | SMILES | IC50 [1] | IC50 (Dot1L) | IC50 (Suv39H2) | IC50 [2] | IC50 (His-EED (residues 1–441)) | enthalpy change (ITC) (recombinant EED) | entropy change (ITC) (recombinant EED) | stoichiometry of binding N (ITC) (recombinant EED)
1 | N#Cc1c2c(c3nncn3c1NCc1ccco1)CN(Cc1ccccc1)CC2 [EED162] | > 100 µM | > 100 µM | > 100 µM | 2.2 µM | 0.32 µM |  |  | 
2 | COc1cccc(CC2CC3Cc4c(cccc4OC)CC3N(C)C2)c1 (stereo not shown) [EED210] | > 100 µM | > 100 µM | > 100 µM |  |  | -20.14 ± 5.29 kcal/mol | -46.5 cal/mol/deg | 0.78
3 | COc1cc(-c2cc3n(c(=N)c2C#N)CCc2cc4c(cc2-3)OCO4)ccc1OC(C)C [EED396] | > 100 µM | > 100 µM | > 100 µM | 87 µM |  |  |  | 
4 | Cc1cc(C)n(-c2cc(N3CCc4ccccc4C3)ccc2[N+](=O)[O-])n1 [EED666] | > 100 µM | > 100 µM | > 100 µM | 99 µM |  |  |  | 
5 | COc1ccccc1CN1CC(c2cn(C)c3ccccc23)C(N(C)C)C1 (stereo not shown) [EED709] | > 100 µM | > 100 µM | > 100 µM |  |  |  |  | 
